Legend:
Assay in all cases: Test C preemergence
Assay type in all cases: in vivo
Sunflower [1] = conditions: Rate 250 g/ha, scale 0 to 100, 0 no effect, 100 complete control
[2] = tested on: morningglory (Ipomoea hederacea)
Summary of the method: (§1)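 Plants held in greenhouse for 12–14 days post-application are scored by eye against controls on a 0–100 control scale. Application timing: preemergence on sown seed, or postemergence on 2–18 cm plants.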

[3] = tested on: johnsongrass (Sorghum halepense); conditions: for Plant response rating (0 to 100), Johnsongrass: visual evaluation after 12 to 14 days
Summary of the method: as §1

[4] = tested on: cocklebur (Xanthium strumarium); conditions: for Plant response rating (0 to 100), Cocklebur: visual evaluation after 12 to 14 days
Summary of the method: as §1

Sunflower [5] = conditions: Rate 125 g/ha; scale 0 to 100, 0 no effect, 100 complete control
[6] = tested on: pigweed (Amaranthus retroflexus)
Summary of the method: as §1

[7] = tested on: crabgrass (Digitaria sanguinalis); conditions: for Plant response rating (0 to 100), Crabgrass: visual evaluation after 12 to 14 days
Summary of the method: as §1

corn (Zea mays) = conditions: for Plant response rating (0 to 100), Corn: visual evaluation after 12 to 14 days
Summary of the method: as §1

[8] = tested on: Surinam grass (Brachiaria decumbens); conditions: for Plant response rating (0 to 100), Surinam grass: visual evaluation after 12 to 14 days
Summary of the method: as §1

[9] = tested on: common ragweed (Ambrosia elatior)
Summary of the method: as §1

Nightshade = tested on: Nightshade
[10] = tested on: bermudagrass (Cynodon dactylon); conditions: for Plant response rating (0 to 100 where 0 is no effect and 100 is complete control), Bermudagrass: visual evaluation after 12 to 14 days
Summary of the method: as §1

[11] = tested on: goosegrass (Eleusine indica); conditions: for Plant response rating (0 to 100), Goosegrass: visual evaluation after 12 to 14 days
Summary of the method: as §1

[12] = tested on: lambsquarters (Chenopodium album)
Summary of the method: as §1

kochia (Kochia scoparia) = conditions: for Plant response rating (0 to 100), Kochia: visual evaluation after 12 to 14 days
Summary of the method: as §1

[13] = tested on: yellow nutsedge (Cyperus esculentus)
Summary of the method: as §1

[14] = tested on: velvetleaf (Abutilon theophrasti)
Summary of the method: as §1

soybean (Glycine max) = tested on: soybean (Glycine max)
Summary of the method: as §1

[15] = tested on: giant foxtail (Setaria faberii); conditions: for Plant response rating (0 to 100), Foxtail, Giant: visual evaluation after 12 to 14 days
Summary of the method: as §1

[16] = tested on: woolly cupgrass (Eriochloa villosa); conditions: for Plant response rating (0 to 100), Cupgrass, Woolly: visual evaluation after 12 to 14 days
Summary of the method: as §1

[17] = Rate 125 g/ha, scale 0 to 100, 0 no effect, 100 complete control
[18] = preemergence, Rate 62 g/ha, scale 0 to 100
[19] = preemergence, Rate 500 g/ha, visual evaluation after 12 to 14 days
[20] = preemergence, Rate 250 g/ha, scale 0 to 100, 0 no effect, 100 complete control

## CCC(CC)c1ccn(C2CCN(c3cccc(OC(C)C)c3)C2=O)n1 (stereo not shown) [Compound 84]
Sunflower [1]
  Plant response rating, Sunflower: 30
[2]; [17]
  Plant response rating, Morningglory: 20
[2]; [18]
  Plant response rating, Morningglory: 0
[2]; [19]
  Plant response rating (0 to 100), Morningglory: 20
[2]; [20]
  Plant response rating, Morningglory: 20
[3]; [17]
  Plant response rating, Johnsongrass: 0
[3]; [18]
  Plant response rating, Johnsongrass: 0
[3]; preemergence, Rate 250 g/ha
  Plant response rating (0 to 100), Johnsongrass: 0
[3]; preemergence, Rate 500 g/ha
  Plant response rating (0 to 100), Johnsongrass: 0
[4]; [17]
  Plant response rating, Cocklebur: 0
[4]; [18]
  Plant response rating, Cocklebur: 0
[4]; preemergence, Rate 250 g/ha
  Plant response rating (0 to 100), Cocklebur: 0
[4]; preemergence, Rate 500 g/ha
  Plant response rating (0 to 100), Cocklebur: 0
Sunflower [5]
  Plant response rating, Sunflower: 10
[6]; [17]
  Plant response rating, Pigweed: 0
[6]; [18]
  Plant response rating, Pigweed: 90
[6]; [19]
  Plant response rating (0 to 100), Pigweed: 90
[6]; [20]
  Plant response rating, Pigweed: 100
[7]; [17]
  Plant response rating, Crabgrass: 100
[7]; [18]
  Plant response rating, Crabgrass: 90
[7]; preemergence, Rate 250 g/ha
  Plant response rating (0 to 100), Crabgrass: 100
[7]; preemergence, Rate 500 g/ha
  Plant response rating (0 to 100), Crabgrass: 100
Corn (Zea mays); [17]
  Plant response rating, Corn: 0
Corn (Zea mays); [18]
  Plant response rating, Corn: 0
Corn (Zea mays); preemergence, Rate 250 g/ha
  Plant response rating (0 to 100), Corn: 0
Corn (Zea mays); preemergence, Rate 500 g/ha
  Plant response rating (0 to 100), Corn: 0
[8]; [17]
  Plant response rating, Surinam grass: 0
[8]; [18]
  Plant response rating, Surinam grass: 0
[8]; preemergence, Rate 250 g/ha
  Plant response rating (0 to 100), Surinam grass: 30
[8]; preemergence, Rate 500 g/ha
  Plant response rating (0 to 100), Surinam grass: 80
[9]; [17]
  Plant response rating, Ragweed, Common: 0
[9]; [18]
  Plant response rating, Ragweed, Common: 0
[9]; [19]
  Plant response rating (0 to 100), Ragweed, Common: 0
[9]; [20]
  Plant response rating, Ragweed, Common: 0
Nightshade; Rate 62 g/ha, scale 0 to 100
  Plant response rating, Nightshade: 30
Nightshade; [17]
  Plant response rating, Nightshade: 50
Nightshade; Rate 250 g/ha, scale 0 to 100, 0 no effect, 100 complete control
  Plant response rating, Nightshade: 100
[10]; [17]
  Plant response rating, Bermudagrass: 100
[10]; [18]
  Plant response rating, Bermudagrass: 100
[10]; preemergence, Rate 250 g/ha
  Plant response rating (0 to 100 where 0 is no effect and 100 is complete control), Bermudagrass: 100
[10]; preemergence, Rate 500 g/ha
  Plant response rating (0 to 100 where 0 is no effect and 100 is complete control), Bermudagrass: 100
[11]; [17]
  Plant response rating, Goosegrass: 80
[11]; [18]
  Plant response rating, Goosegrass: 20
[11]; preemergence, Rate 250 g/ha
  Plant response rating (0 to 100), Goosegrass: 90
[11]; preemergence, Rate 500 g/ha
  Plant response rating (0 to 100), Goosegrass: 100
[12]; [17]
  Plant response rating, Lambsquarters: 100
[12]; [18]
  Plant response rating, Lambsquarters: 100
[12]; [19]
  Plant response rating (0 to 100), Lambsquarters: 100
[12]; [20]
  Plant response rating, Lambsquarters: 100
Kochia (Kochia scoparia); [17]
  Plant response rating, Kochia: 100
Kochia (Kochia scoparia); [18]
  Plant response rating, Kochia: 80
Kochia (Kochia scoparia); preemergence, Rate 250 g/ha
  Plant response rating (0 to 100), Kochia: 100
Kochia (Kochia scoparia); preemergence, Rate 500 g/ha
  Plant response rating (0 to 100), Kochia: 100
[13]; [17]
  Plant response rating, Nutsedge: 0
[13]; [18]
  Plant response rating, Nutsedge: 0
[13]; [19]
  Plant response rating (0 to 100), Nutsedge: 0
[13]; [20]
  Plant response rating, Nutsedge: 0
[14]; [17]
  Plant response rating, Velvetleaf: 0
[14]; [18]
  Plant response rating, Velvetleaf: 0
[14]; [19]
  Plant response rating (0 to 100), Velvetleaf: 0
[14]; [20]
  Plant response rating, Velvetleaf: 0
Soybean (Glycine max); [17]
  Plant response rating, Soybean: 0
Soybean (Glycine max); [18]
  Plant response rating, Soybean: 0
Soybean (Glycine max); [19]
  Plant response rating (0 to 100), Soybean: 0
Soybean (Glycine max); [20]
  Plant response rating, Soybean: 0
[15]; [17]
  Plant response rating, Foxtail, Giant: 80
[15]; [18]
  Plant response rating, Foxtail, Giant: 10
[15]; preemergence, Rate 250 g/ha
  Plant response rating (0 to 100), Foxtail, Giant: 100
[15]; preemergence, Rate 500 g/ha
  Plant response rating (0 to 100), Foxtail, Giant: 100
[16]; [17]
  Plant response rating, Cupgrass, Woolly: 90
[16]; [18]
  Plant response rating, Cupgrass, Woolly: 60
[16]; preemergence, Rate 250 g/ha
  Plant response rating (0 to 100), Cupgrass, Woolly: 90
[16]; preemergence, Rate 500 g/ha
  Plant response rating (0 to 100), Cupgrass, Woolly: 100
